Calls of active or inactive are those of the source. No cut-off for these calls is given here.
Experiments:
MRC5 = experiment: cells; conditions: Homo sapiens, MRC5, 69 h
Description: Antiproliferative activity against human MRC5 cells assessed as reduction cell viability incubated for 69 hrs by rezasurin dye based assay

[1] = Inhibition of Trypanosoma brucei N-myristoyltransferase assessed as transfer of [3H]-myristic acid to a biotinylated substrate peptide (GCGGSKVKPQPPQAK(biotin)-amide by scintillation proximity assay
Mus musculus [2] = experiment: (§1) Maximum tolerated dose in orally twice daily dosed mouse; assay type: ADME, organism-based; conditions: in vivo, po
Mus musculus [3] = experiment: Toxicity in bloodstream form of Trypanosoma brucei beucei GVR35 infected NMRI mouse stage 2 human African trypanosomiasis model at 100 mg/kg, po bid for 5 days; assay type: organism-based; parameters: dose 100 mg/kg, route oral; conditions: in vivo, 120 h
[4] = target: Voltage-gated inwardly rectifying potassium channel KCNH2 (Homo sapiens, UniProt Q12809); experiment: Inhibition of human ERG
Chain of Voltage-gated inwardly rectifying potassium channel KCNH2 (Q12809 whole entry): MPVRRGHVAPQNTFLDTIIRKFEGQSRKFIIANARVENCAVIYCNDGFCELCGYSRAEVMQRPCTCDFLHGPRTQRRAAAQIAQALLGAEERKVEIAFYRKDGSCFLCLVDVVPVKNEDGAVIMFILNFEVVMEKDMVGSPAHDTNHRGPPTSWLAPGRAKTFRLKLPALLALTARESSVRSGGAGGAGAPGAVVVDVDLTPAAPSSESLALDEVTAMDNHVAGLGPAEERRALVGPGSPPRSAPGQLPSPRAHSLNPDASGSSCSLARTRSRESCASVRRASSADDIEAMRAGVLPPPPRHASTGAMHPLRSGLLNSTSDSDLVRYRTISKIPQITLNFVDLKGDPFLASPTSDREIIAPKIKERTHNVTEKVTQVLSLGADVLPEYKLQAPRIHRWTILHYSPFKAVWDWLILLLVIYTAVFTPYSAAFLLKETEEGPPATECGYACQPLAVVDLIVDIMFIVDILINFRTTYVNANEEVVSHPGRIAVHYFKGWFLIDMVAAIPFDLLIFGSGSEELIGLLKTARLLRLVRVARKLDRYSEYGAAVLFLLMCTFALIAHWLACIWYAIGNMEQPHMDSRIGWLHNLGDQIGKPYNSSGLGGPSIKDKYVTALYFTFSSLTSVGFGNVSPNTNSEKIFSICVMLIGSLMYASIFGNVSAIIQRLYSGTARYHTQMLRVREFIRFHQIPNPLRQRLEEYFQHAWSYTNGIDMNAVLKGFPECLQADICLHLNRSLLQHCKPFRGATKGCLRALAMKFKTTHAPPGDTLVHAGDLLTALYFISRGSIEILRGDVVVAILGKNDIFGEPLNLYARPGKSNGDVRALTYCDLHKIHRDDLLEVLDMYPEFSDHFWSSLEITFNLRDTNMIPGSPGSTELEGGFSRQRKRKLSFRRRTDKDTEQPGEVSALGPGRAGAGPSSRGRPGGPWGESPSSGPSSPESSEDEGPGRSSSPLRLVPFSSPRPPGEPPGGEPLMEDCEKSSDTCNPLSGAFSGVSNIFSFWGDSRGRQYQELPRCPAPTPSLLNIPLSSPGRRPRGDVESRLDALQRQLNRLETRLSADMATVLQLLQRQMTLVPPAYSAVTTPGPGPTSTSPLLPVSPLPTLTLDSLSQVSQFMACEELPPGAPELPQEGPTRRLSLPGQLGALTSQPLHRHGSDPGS

[5] = tested on: Trypanosoma brucei brucei; experiment: Trypanocidal activity against bloodstream form of Trypanosoma brucei beucei GVR35 infected in NMRI mouse stage 2 human African trypanosomiasis model at 100 mg/kg, po bid for 8 days followed by three rounds of 3 day dosing at 100 mg/kg with two day drug holiday between rounds; assay type: functional, organism-based
Trypanosoma brucei = experiment: microbe, parasite or virus in culture; conditions: BSF427, 69 h
Description: Antitrypanosomal activity against Trypanosoma brucei BSF427 expressing VSG118 infected in human MRC5 cells assessed as reduction cell viability incubated for 69 hrs by rezasurin dye based assay

Mus musculus [6] = experiment: Toxicity in bloodstream form of Trypanosoma brucei beucei GVR35 infected NMRI mouse stage 2 human African trypanosomiasis model at 150 mg/kg, po bid for 5 days; assay type: organism-based; parameters: dose 150 mg/kg, route oral; conditions: in vivo, 120 h
[7] = as §1; assay type: ADME, organism-based; conditions: in vivo, po
[8] = Ratio of drug level in brain to blood in mdr1a-deficient mouse; assay type: ADME, organism-based; conditions: brain and blood, read-out: BBR
[9] = target: T1, Glycylpeptide N-tetradecanoyltransferase 1 (Homo sapiens, UniProt P30419); experiment: Inhibition of human N-myristoyltransferase 1 assessed as transfer of [3H]-myristic acid to a biotinylated substrate peptide (GCGGSKVKPQPPQAK(biotin)-amide by scintillation proximity assay
T1 sequence (P30419 whole entry): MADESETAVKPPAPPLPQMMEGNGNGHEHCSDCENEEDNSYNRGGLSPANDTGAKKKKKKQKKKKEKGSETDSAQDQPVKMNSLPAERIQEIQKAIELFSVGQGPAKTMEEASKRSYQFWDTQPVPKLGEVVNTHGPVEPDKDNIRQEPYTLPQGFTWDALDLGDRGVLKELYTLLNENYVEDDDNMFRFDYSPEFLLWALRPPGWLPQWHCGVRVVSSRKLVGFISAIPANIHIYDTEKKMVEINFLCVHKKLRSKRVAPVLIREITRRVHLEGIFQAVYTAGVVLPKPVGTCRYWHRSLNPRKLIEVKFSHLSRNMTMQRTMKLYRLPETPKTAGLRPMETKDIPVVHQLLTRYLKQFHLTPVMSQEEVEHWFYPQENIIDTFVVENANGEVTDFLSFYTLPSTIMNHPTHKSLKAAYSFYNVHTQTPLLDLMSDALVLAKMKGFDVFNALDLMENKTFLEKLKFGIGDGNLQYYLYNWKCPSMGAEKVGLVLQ

[10] = Ratio of drug level in brain to blood in wild type NMRI mouse at 2 mg free base/kg, iv by UPLC-MS/MS method; assay type: ADME, organism-based; conditions: brain and blood, read-out: BBR
[11] = tested on: Trypanosoma brucei brucei; experiment: Trypanocidal activity against bloodstream form of Trypanosoma brucei beucei GVR35 infected in NMRI mouse stage 2 human African trypanosomiasis model at 150 mg/kg, po bid for 5 days; assay type: functional, organism-based; parameters: dose 150 mg/kg
[12] = Selectivity index, IC50 for human N-myristoyltransferase to EC50 for Trypanosoma brucei; assay type: functional
Mus musculus [13] = experiment: Toxicity in bloodstream form of Trypanosoma brucei beucei GVR35 infected NMRI mouse stage 2 human African trypanosomiasis model at 50 mg/kg, po bid for 8 days; assay type: organism-based; parameters: dose 50 mg/kg, route oral; conditions: in vivo, 192 h
[14] = tested on: Trypanosoma brucei brucei; experiment: Trypanocidal activity against Trypanosoma brucei beucei GVR35 infected in NMRI mouse acute model dosed twice daily orally for 4 days; assay type: functional
Mus musculus [15] = experiment: Toxicity in bloodstream form of Trypanosoma brucei beucei GVR35 infected NMRI mouse stage 2 human African trypanosomiasis model at 50 mg/kg, po bid for 5 days; assay type: organism-based; parameters: dose 50 mg/kg, route oral; conditions: in vivo, 120 h
[16] = tested on: Trypanosoma brucei brucei; experiment: Trypanocidal activity against bloodstream form of Trypanosoma brucei beucei GVR35 infected in NMRI mouse stage 2 human African trypanosomiasis model at 25 mg/kg, po bid for 10 days; assay type: functional, organism-based; parameters: dose 25 mg/kg
[17] = tested on: Trypanosoma brucei brucei; experiment: Trypanocidal activity against Trypanosoma brucei beucei S427 infected in NMRI mouse acute model dosed twice daily orally for 4 days; assay type: functional
[18] = tested on: Trypanosoma brucei brucei; experiment: Trypanocidal activity against bloodstream form of Trypanosoma brucei beucei GVR35 infected in NMRI mouse stage 2 human African trypanosomiasis model at 50 mg/kg, po bid for 8 days; assay type: functional, organism-based; parameters: dose 50 mg/kg
[19] = tested on: Trypanosoma brucei brucei; experiment: Trypanocidal activity against bloodstream form of Trypanosoma brucei brucei S427 infected in mouse stage 1 HAT model at […], po bid for 4 days; assay type: functional, organism-based
[20] = Plasma protein binding in mouse; assay type: ADME, organism-based; conditions: read-out: PPB (converted)
[21] = tested on: Trypanosoma brucei rhodesiense; experiment: Trypanocidal activity against bloodstream form of Trypanosoma brucei rhodesiense STIB900 infected in mouse stage 1 HAT model at 50 mg/kg, po bid for 4 days; assay type: functional, organism-based; parameters: dose 50 mg/kg
[22] = tested on: Trypanosoma brucei rhodesiense; experiment: Trypanocidal activity against bloodstream form of Trypanosoma brucei rhodesiense STIB900 infected in twice daily po dosed mouse; assay type: functional
Mus musculus [23] = experiment: AUC (0 to 8 hrs) in NMRI mouse at 10 mg/kg, po by UPLC-MS/MS method; assay type: ADME, organism-based, Plasma; parameters: time < 8 hr, dose 10 mg/kg, route oral; conditions: in vivo
Mus musculus [24] = experiment: Oral bioavailability in NMRI mouse at 10 mg/kg by UPLC-MS/MS method; assay type: ADME, organism-based; conditions: in vivo

SMILES	EC50 (MRC5)	IC50 [1]	EC50 (Trypanosoma brucei)	other results
Cc1nn(C)c(C)c1N(C(F)F)S(=O)(=O)c1c(Cl)cc(CCCOC[C@H]2CCCCN2C)cc1Cl	3500 nM	2 nM		
Cc1nn(C)c(C)c1N(C(F)F)S(=O)(=O)c1c(Cl)cc(CCCN2CCN3CCC[C@@H]3C2)cc1Cl	3100 nM	2 nM		
Cc1nn(C)c(C)c1N(C(F)F)S(=O)(=O)c1c(Cl)cc(CCCOC[C@@H]2CCCN2C)cc1Cl	2800 nM	2 nM		
Cc1nn(C)c(C)c1N(C(F)F)S(=O)(=O)c1c(Cl)cc(CCCC2CCN(C)CC2)cc1Cl				MTD (Mus musculus [2]): 100 mg/kg; Activity (Mus musculus [3]): Toxic; IC50 [4]: 600 nM; inhibition [5]: Active
Cc1nn(C)c(C)c1NS(=O)(=O)c1ccc(CCCCC2CCN(C)CC2)cc1	3600 nM	3 nM	16 nM	
Cc1nn(C)c(C)c1N(CC(F)(F)F)[S+](=O)([O-])c1c(Cl)cc(CCCC2CCN(C)CC2)cc1Cl				Activity (Mus musculus [6]): Non-toxic; MTD [7]: 150 mg/kg
Cc1nn(C)c(C)c1NS(=O)(=O)c1ccc(CCCC2CCN(C)CC2)cc1	18700 nM	7 nM	30 nM	
Cc1nn(C)c(C)c1NS(=O)(=O)c1c(Cl)cc(Br)cc1Cl	> 50000 nM	500 nM	16000 nM	Kp [8]: < 0.1; IC50 [9]: 7300 nM; Kp [10]: < 0.1
Cc1nn(C)c(C)c1N(C(F)F)S(=O)(=O)c1c(Cl)cc(CCCOC[C@@H]2CCCCN2C)cc1Cl	3900 nM	2 nM		
Cc1nn(C)c(C)c1N(CC(F)(F)F)S(=O)(=O)c1c(Cl)cc(CCCC2CCN(C)CC2)cc1Cl				inhibition [11]: inactive
Cc1nn(C)c(C)c1NS(=O)(=O)c1c(Cl)cc(CCCN2CCN(C)CC2)cc1Cl	31400 nM	3 nM		
Cc1nn(C)c(C)c1NS(=O)(=O)c1ccc(CCCN2CCN(C)CC2)cc1	> 50000 nM	120 nM	750 nM	Selectivity Index [12]: 4.7; IC50 [9]: 3500 nM
Cc1nn(C)c(C)c1NS(=O)(=O)c1c(Cl)cc(CCCCC2CCNCC2)cc1Cl	370 nM	3 nM	0.6 nM	
Cc1nn(C)c(C)c1NS(=O)(=O)c1ccc(CCCCC2CCNCC2)cc1	5300 nM	6 nM	9 nM	
Cc1nn(C)c(C)c1N(C(F)F)S(=O)(=O)c1c(Cl)cc(CCCOC[C@H]2CCCN2C)cc1Cl	3200 nM	2 nM		
Cc1nn(C)c(C)c1NS(=O)(=O)c1c(Cl)cc(C#Cc2cncn2C)cc1Cl	16600 nM	660 nM	3900 nM	
Cc1nn(C)c(C)c1N(C(F)F)S(=O)(=O)c1c(Cl)cc(CCCCC2CCN(C)CC2)cc1Cl				Activity (Mus musculus [13]): Toxic; MCD [14]: 25 mg/kg; Activity (Mus musculus [15]): Toxic; inhibition [16]: inactive; MTD (Mus musculus [2]): 50 mg/kg; MCD [17]: 6 mg/kg; inhibition [18]: inactive
Cn1cc(NS(=O)(=O)c2c(Cl)cc(-c3ccnc(N4CCNCC4)c3)cc2Cl)cn1	10300 nM		370 nM	
Cc1nn(C)c(C)c1NS(=O)(=O)c1c(Cl)cc(C#CCN2CCN(C)CC2)cc1Cl	> 50000 nM	160 nM	660 nM	Selectivity Index [12]: 7; IC50 [9]: 4600 nM
Cc1nn(C)cc1NS(=O)(=O)c1c(Cl)cc(-c2ccnc(N3CCNCC3)c2)cc1Cl	250 nM	4 nM	2 nM	
Cc1c(NS(=O)(=O)c2c(Cl)cc(-c3ccnc(N4CCNCC4)c3)cc2Cl)cnn1C	1230 nM		24 nM	
Cc1nn(C)c(C)c1NS(=O)(=O)c1c(Cl)cc(CCCCC2CCN(C)CC2)cc1Cl	180 nM	1 nM	0.5 nM	
Cc1nn(C)c(C)c1NS(=O)(=O)c1ccc(CCCC2CCNCC2)cc1	> 50000 nM	9 nM	110 nM	
Cc1nn(C)c(C)c1N(C)S(=O)(=O)c1c(Cl)cc(Br)cc1Cl	27200 nM	330 nM	5100 nM	Kp [8]: 3.7; IC50 [9]: 3580 nM; Kp [10]: 3.7
Cc1nn(C)c(C)c1NS(=O)(=O)c1c(Cl)cc(CCCC2CCNCC2)cc1Cl	2500 nM	2 nM	2 nM	
Cc1nn(C)c(C)c1NS(=O)(=O)c1c(Cl)cc(-c2ccnc(N3CCNCC3)c2)cc1Cl				Activity [19]: Active; fraction unbound [20]: 0.06; Activity [21]: Active; MCD [22]: 50 mg/kg; AUC (Mus musculus [23]): 392 µg/min/mL; F (Mus musculus [24]): 20%
Cc1c(NS(=O)(=O)c2c(Cl)cc(-c3ccnc(N4CCNCC4)c3)cc2Cl)c(CC(C)C)nn1C [ZELENIRSTAT]				MCD [22]: 6 mg/kg; AUC (Mus musculus [23]): 3400 µg/min/mL; F (Mus musculus [24]): 93%
Cc1nn(C)c(C)c1NS(=O)(=O)c1c(Cl)cc(CCCC2CCN(C)CC2)cc1Cl	2200 nM	2 nM	2 nM	
Cc1nn(C)c(CC(C)C)c1NS(=O)(=O)c1c(Cl)cc(-c2ccnc(N3CCNCC3)c2)cc1Cl	640 nM	6 nM	5 nM	
